Results from patent US20210128740A1, “HDAC INHIBITORS-BASED ANTIBODY DRUG CONJUGATES (ADCs) AND USE IN THERAPY” (ALFASIGMA S.P.A., priority 2017, published 2021).

What was measured:
Parameters in all cases: species or system mice
[1] = test system: CAPAN-1 orthotopic pancreatic tumor; assay: In vivo antitumor effect against orthotopic CAPAN-1 pancreas cancer; conditions: 200 mg/kg, ip, q4dx4
Excerpt: Capan-1 (1×10^6) cells were directly injected into pancreas of experimental groups.

[2] = test system: NCI-H1975 non-small cell lung carcinoma; assay: In vivo antitumor effect against s.c. NCI-H1975 non-small cell lung cancer; conditions: 120 mg/kg, ip, q4dx4
Method: Nude Nu/Nu female mice (from Charles River, Italy) were given a single subcutaneous injection of 5×10^6 NCI-H1975 non-small cell lung carcinoma cells suspended in 100 μL cell culture medium RPMI supplemented with 10% FBS. […] Vehicle group was treated by PBS. Tumor growth was measured with a caliper and tumor volume was calculated using the formula length (mm)×width 2 (mm)/2. The tumor inhibition was calculated according to the equation: % TVI=100−(mean tumor volume of treated group/mean tumor volume of control group)×100. Toxicity was evaluated on the basis of the body weight reduction.
Animals were euthanized by CO2 inhalation when the tumors reached a volume around 1200 mm^3.

[3] = test system: A549 non-small cell lung carcinoma; assay: In vivo antitumor effect of combination of Cetuximab with ST7612AA1 vs ADC against s.c. A549 lung cancer (Example 31)
Method: The human A549 lung carcinoma cells were cultured in their appropriate complete medium. On the day of tumor injection, cells were harvested from subconfluent cultures by trypsinization, washed with PBS, suspended in PBS and subcutaneously injected into the right flank of immunodeficient mice (5×10^6/100 μL). Treatments started when tumor size was around 80 mm^3 and mice were randomized into the experimental groups (10 mice/group): […]

## CC(=O)SCCCCC[C@H](NC(=O)[C@H]1CCC(=O)N1)C(=O)Nc1ccccc1 [ST7612AA1]
[1]
  Tumor growth inhibition: 32%
[2]
  Antitumor activity: completely inactive
[3]; 0.1 mg/kg, ip, q4dx4
  Antitumor activity: not effective
  TVI at day 50: 0, P = 0.95
  TVI at day 56: 0, P = 0.88
[3]; 40 mg/kg, po, qdx5/wx3w
  TVI at day 50: 33, P = 0.007
  TVI at day 56: 35, P = 0.0009
